In EPA's CvTdb concentration-time database:

Legend:
Assay in all cases: concentration in plasma after dosing
Rat [1] = conditions: dosed: DL-Camphor, 6 mg/kg, iv, Male, F344
Rat [2] = conditions: dosed: DL-Camphor, 6 mg/kg, iv, Male, F344; remark: listed apart in the source
Rat [3] = conditions: dosed: DL-Camphor, 6 mg/kg, iv, Male, F344; remark: listed apart in the source
Rat [4] = conditions: dosed: DL-Camphor, 6 mg/kg, iv, Female, F344
Rat [5] = conditions: 1.5 h; dosed: DL-Camphor; 6 mg/kg; iv; Female; F344
Rat [6] = conditions: dosed: DL-Camphor, 6 mg/kg, iv, Female, F344; remark: listed apart in the source
Rat [7] = conditions: dosed: DL-Camphor, 6 mg/kg, iv, Male, F344; remark: listed apart in the source
Rat [8] = conditions: dosed: DL-Camphor, 6 mg/kg, iv, Female, F344; remark: listed apart in the source
Rat [9] = conditions: dosed: DL-Camphor, 6 mg/kg, iv, Male, F344; remark: listed apart in the source
Rat [10] = conditions: dosed: DL-Camphor, 6 mg/kg, iv, Female, F344; remark: listed apart in the source
Rat [11] = conditions: dosed: DL-Camphor, 6 mg/kg, iv, Female, F344; remark: listed apart in the source
Rat [12] = conditions: dosed: DL-Camphor, 6 mg/kg, iv, Male, F344; remark: listed apart in the source
Rat [13] = conditions: 1.5 h; dosed: DL-Camphor; 6 mg/kg; iv; Male; F344
Rat [14] = conditions: dosed: DL-Camphor, 6 mg/kg, iv, Female, F344; remark: listed apart in the source
Rat [15] = conditions: dosed: DL-Camphor, 6 mg/kg, iv, F344
Rat [16] = conditions: dosed: DL-Camphor, 6 mg/kg, iv, Female, F344; remark: listed apart in the source
Rat [17] = conditions: dosed: DL-Camphor, 6 mg/kg, iv, Male, F344; remark: listed apart in the source
Rat [18] = conditions: 6 h; dosed: DL-Camphor; 6 mg/kg; iv; Male; F344
Rat [19] = conditions: 1 h; dosed: DL-Camphor; 6 mg/kg; iv; Female; F344
Rat [20] = conditions: dosed: DL-Camphor, 6 mg/kg, iv, Female, F344; remark: listed apart in the source
Rat [21] = conditions: dosed: DL-Camphor, 6 mg/kg, iv, Male, F344; remark: listed apart in the source
Rat [22] = conditions: 1.5 h; dosed: DL-Camphor; 6 mg/kg; iv; Female; F344; remark: listed apart in the source
Rat [23] = conditions: dosed: DL-Camphor, 6 mg/kg, iv, Male, F344; remark: listed apart in the source
Rat [24] = conditions: 1 h; dosed: DL-Camphor; 6 mg/kg; iv; Female; F344; remark: listed apart in the source
Rat [25] = conditions: dosed: DL-Camphor, 6 mg/kg, iv, Male, F344; remark: listed apart in the source

CC12CCC(CC1=O)C2(C)C (racemic) [DL-Camphor]
Conditions | concentration in plasma [ng/mL]
Rat [1], 0.25 h | 1710
Rat [1], 6 h | 88.1
Rat [2], 2 h | 205
Rat [2], 5 min | 4050
Rat [3], 0.25 h | 1680
Rat [3], 1.5 h | 197
Rat [4], 0.75 h | 526
Rat [4], 8 h | 98.3
Rat [6], 0.25 h | 1520
Rat [6], 6 h | 18.3
Rat [7], 0.5 h | 258
Rat [7], 4 h | 135
Rat [8], 0.75 h | 114
Rat [8], 8 h | 46.7
Rat [9], 0.5 h | 648
Rat [9], 4 h | 127
Rat [10], 0.25 h | 132
Rat [10], 6 h | 70.2
Rat [11], 2 h | 152
Rat [11], 5 min | 2850
Rat [12], 1 h | 257
Rat [12], 10 h | 77.4
Rat [14], 2 h | 191
Rat [14], 5 min | 3070
Rat [16], 0.5 h | 612
Rat [16], 4 h | 61.7
Rat [17], 0.75 h | 577
Rat [17], 8 h | 31.3
Rat [20], 0.5 h | 848
Rat [20], 4 h | 62.7
Rat [21], 2 h | 205
Rat [21], 5 min | 3700
Rat [23], 0.75 h | 545
Rat [23], 8 h | 49.1
Rat [25], 1 h | 411
Rat [25], 10 h | 35

Conditions | concentration in plasma [ng/mL]
Rat [5] | 240
Rat [13] | 228
Rat [18] | 87
Rat [19] | 411
Rat [22] | 121
Rat [24] | 391

concentration in plasma [ng/mL], Rat [15]
Conditions | Female | Male
0.25 h | 1250 | 1350
0.5 h | 731 | 839
0.75 h | 527 | 617
1 h | 96 | 326
1.5 h | 332 | 196
2 h | 221 | 186
4 h | 65.9 | 138
5 min | 3000 | 4140
6 h | 222 | 76.7
8 h | – | 31
10 h | 10.3 | 27.3
